The text below walks through data of patent US10912770B2, “Targeting AMP deaminase 2 for ameliorating craving for sugar and other substances” (The Regents of the University of Colorado, a body coporate, priority 2016, dated 2021).

Entries after “also recorded” stand apart in the source; their conditions may differ.

In one experiment the test system is human AMPDA. As to conditions: cited from earlier work; for Ki: human AMPDA, read-out: AMPDA K(i).
A further experiment addresses T1, adenosine deaminase (Homo sapiens, UniProt P00813).
T1 sequence (P00813 1-363): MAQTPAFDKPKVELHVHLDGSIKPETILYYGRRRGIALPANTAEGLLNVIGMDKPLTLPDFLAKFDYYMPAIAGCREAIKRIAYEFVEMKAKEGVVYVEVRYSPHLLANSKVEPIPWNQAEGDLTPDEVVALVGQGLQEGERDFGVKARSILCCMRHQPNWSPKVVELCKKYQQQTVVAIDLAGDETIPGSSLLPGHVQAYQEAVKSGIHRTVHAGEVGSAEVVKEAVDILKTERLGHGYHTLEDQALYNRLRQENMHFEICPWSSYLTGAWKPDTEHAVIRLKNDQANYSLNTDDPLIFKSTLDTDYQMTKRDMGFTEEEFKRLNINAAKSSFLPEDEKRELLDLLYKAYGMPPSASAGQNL
The following applies: cited from earlier work.

The target of a further experiment is T2, AMPD2 (Mus musculus, UniProt Q9DBT5).
T2 construct: from tissue
T2 sequence (Q9DBT5 1-824): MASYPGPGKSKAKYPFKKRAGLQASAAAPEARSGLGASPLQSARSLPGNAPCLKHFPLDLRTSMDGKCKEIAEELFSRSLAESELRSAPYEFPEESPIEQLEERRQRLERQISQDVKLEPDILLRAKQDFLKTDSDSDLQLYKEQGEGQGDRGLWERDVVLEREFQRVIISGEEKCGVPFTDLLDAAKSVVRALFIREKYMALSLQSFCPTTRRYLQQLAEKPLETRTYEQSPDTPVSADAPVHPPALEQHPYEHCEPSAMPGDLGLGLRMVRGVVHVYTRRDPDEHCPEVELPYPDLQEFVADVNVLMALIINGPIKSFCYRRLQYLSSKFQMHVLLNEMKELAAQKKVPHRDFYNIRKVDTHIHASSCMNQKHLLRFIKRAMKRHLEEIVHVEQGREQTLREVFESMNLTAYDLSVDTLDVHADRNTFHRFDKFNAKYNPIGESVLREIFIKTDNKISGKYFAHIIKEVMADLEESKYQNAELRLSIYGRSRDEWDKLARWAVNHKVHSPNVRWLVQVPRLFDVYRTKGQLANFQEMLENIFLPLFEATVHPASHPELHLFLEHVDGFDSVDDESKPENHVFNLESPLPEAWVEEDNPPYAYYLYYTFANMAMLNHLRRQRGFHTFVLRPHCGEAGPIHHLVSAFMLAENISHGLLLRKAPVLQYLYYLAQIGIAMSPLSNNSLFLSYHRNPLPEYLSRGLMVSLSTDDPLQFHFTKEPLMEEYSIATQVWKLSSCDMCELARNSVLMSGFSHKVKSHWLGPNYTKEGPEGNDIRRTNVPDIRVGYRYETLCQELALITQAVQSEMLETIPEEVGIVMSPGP
In words: AMPD2 activity in the liver after oral pan AMPD inhibitor. Type of experiment: in vivo. The following applies: wild type mice, gavage 25 mg/kg twice daily (50 mg/kg/d). Here is the method:
(§1) Mice were administered the racemate of the active compound 1 (FIG. 2 in the paper by Admyre et al Chem Biol 2014; 21:1488-1496) by gavage at a dose of 25 mg/kg twice daily beginning two days before administering fructose (15%) in the drinking water.
(§2) The benefit from blocking AMPD2 on craving is not limited to mice genetically lacking AMPD2. Recently an inhibitor for AMPD2 was published, and we made a racemate of the active compound 1 (FIG. 2 in the paper by Admyre et al Chem Biol 2014; 21:1488-1496).

Another experiment relates to wild type mice. In words: Fructose craving: intake of fructose (15%) drinking water. It counts as in vivo. The method, then:
as §1, §2

Consider “3-[2-(3-carboxy-4-bromo-5,6,7,8-tetrahydronaphthyl)ethyl]-3,6,7,8-tetrahydroimidazo[4,5-d][1,3]diazepin-8-ol [Compound 24b]”, for which, in the experiment with human AMPDA, the “enhancement in AMPDA inhibitory potency” value was 10- to 250 fold, the “potency (K(i)) lower than the Km for the substrate AMP” value is reported as 10(5) fold and the Ki was 2 nM. Moreover, on adenosine deaminase, the enzyme specificity result is reported as “without loss in the enzyme specificity”.

In the case of `CC(NCc1ccc(-c2ccc(C(=O)O)cn2)cc1)c1cccc2ccncc12` (racemic) [racemate of the active compound 1, 6-(4-((1-(Isoquinolin-8-yl)ethylamino)methyl)phenyl)nicotinic acid], at AMPD2, the “AMPD2 activity in the liver” value is on record as “significantly block AMPD2 activity in the liver; also recorded: inhibition of AMPD2 activity in the liver”. Further, the craving for fructose entry with wild type mice (gavage 25 mg/kg twice daily (50 mg/kg/d), fructose (15%) water) was “completely blocked the craving for fructose”. Further, the “intake of fructose-containing water” value in the experiment with wild type mice (gavage 25 mg/kg twice daily from two days before fructose (15%) in drinking water) is listed as “significantly reduce the intake of fructose-containing water”.

On to `CCc1cc(CCn2cnc3c2N=CNCC3O)cc(C(=O)O)c1` (centres unmarked) [43 g, 3-[2-(3-carboxy-5-ethylphenyl)ethyl]-3,6,7,8-tetrahydroimidazo[4,5-d][1,3]diazepin-8-ol], for which, on human AMPDA, the Ki is 60 nM.
